Results published in patent US8920819B2, “Delivery of hydrophilic drugs” (University College London, priority 2009, dated 2014).

Experiments:
[1] = Pharmacokinetics after oral administration; plasma and brain Leucine[5]-Enkephalin by radioimmunoassay; format: in vivo, ICR (CD-1) male out bred mice; details: mice
Experimental: ICR (CD-1) male out bred mice (18-24 g, 4 weeks old, Harlan, Oxon, UK) were used. The animals were housed in groups of 5 in plastic cages in controlled laboratory conditions with ambient temperature and humidity maintained at ˜22° C. and 60% with a 12-hour light and dark cycle (lights on at 7:00 and off at 19:00). Food and water were available ad libitum and the animals acclimatised for 5-7 days prior to any experiments in the Animal House, School of Pharmacy, University of London (London, UK). Animals were fasted overnight for oral delivery experiments. Animals were only used once and were acclimatised at the testing environment for at least 1 hour prior to testing.
Syringes were attached to 19-20G commercial gavage needles (2-3 cm long) for oral administration.
Double de-ionised filtered (0.2 μm, 33 mm Millex GP syringe driven filter unit, PES membrane for sterilisation of aqueous solutions) water was used as the disperse phase for the oral formulations. […] All formulations were prepared by vortexing (WhirliMixer, Fisherbrand) and then by probe sonication (MSE Soniprep 150) with the instrument set at 50% of its maximum output for 15 minutes on ice. The formulations were left overnight in the fridge; the administered volume was set to a maximum of 0.2 ml per mouse. The administered volume was adjusted based on the HPLC quantification of LENK and TPLENK and the body weight of each animal. The maximum volume was dosed for placebo (H2O) receiving mice.
Blood samples (0.4-0.8 mls per mouse) were collected into a chilled syringe and transferred into evacuated sterile spray coated (with tripotassium ethylenediamine tetraacetic acid—3.6 mg) medical grade PET tubes (3×75 mm K3E Vacutainer©, BD Biosciences, UK) and maintained on ice (4° C.) until centrifugation. There is no dilution effect in spray coated tubes. Plasma was obtained as the supernatant after centrifugation of blood samples at 1,600 g or 4800 rpm for 15 minutes at 4° C. with a Hermle Z323 centrifuge (Hermle Laborteschink GmbH, Germany) and was pipetted into 1.5 mL centrifuge tubes and stored at −70° C. for later use.
Brain tissue minus the cerebellum (0.25-0.35 g) recovered from mice was immediately frozen in liquid nitrogen (−80° C.) until they were homogenised. The brain weight was recorded for each individual animal. After thawing tissues were boiled for 10 minutes in 30 volumes of a mixture of 1M of acetic acid, 0.02M of hydrochloric acid and 0.1% 2-mercaptoethanol (De Ceballos et al. 1991; Ahmed et al. 1994; Wu et al. 2005). The tissues were homogenised with 80 strokes per minute for half a minute with a glass 3 mL homogeniser (Jencons-PLS, England). […]

[2] = tested on: CD-1 mice; assay: Antinociception, tail flick warm water bioassay, oral administration; format: in vivo, ICR (CD-1) male out bred mice; details: 70 mg Kg^-1 Leucine[5]-Enkephalin (L, LG) or 100 mg Kg^-1 TPLENK (PG), out of 16 mice
Experimental: (§1) ICR (CD-1) male out bred mice (22-28 g, 4-5 weeks old, Harlan, Oxon, UK) were used. The animals were housed in groups of 5 in plastic cages in controlled laboratory conditions with ambient temperature and humidity maintained at ˜22° C. and 60% with a 12-hour light and dark cycle (lights on at 8:00 and off at 20:00). Food and water were available ad libitum and the animals acclimatised for 5-7 days, prior to any experiments, in the Animal House, School of Pharmacy, University of London (London, UK). Animals were fasted overnight for oral delivery experiments. Animals were only used once and were acclimatised at the testing environment for at least 20 hours prior to testing. […]
Double de-ionised filtered (0.2 μm, 33 mm Millex GP syringe driven filter unit, PES membrane for sterilisation of aqueous solutions) water was used as the disperse phase. […] The administered volume was adjusted based on HPLC quantification of LENK and TPLENK and the body weight of each animal. […]
Antinociception was assessed in mice using the tail flick warm water bioassay (D'Amour and Smith 1941; Mogil et al. 1999). […] The response latency times, in centiseconds, recorded for each mouse to withdraw its tail by a “sharp flick” were recorded using a digital stopwatch capable of measuring 1/100th of a second. […] Briefly, percent antinociception was calculated as 100% ×(test latency-baseline latency)/(10 seconds−baseline latency). […]

[3] = tested on: CD-1 mice; assay: Antinociception, tail flick warm water bioassay, intravenous administration; format: in vivo, ICR (CD-1) male out bred mice; details: 14 mg Kg^-1 Leucine[5]-Enkephalin (L, LG) or 20 mg Kg^-1 TPLENK (PG), out of 8 mice
Experimental: as §1, with “60% respectively” for “60%”, “were” for “were fasted overnight for oral delivery experiments. Animals were”, “acclimatised in” for “acclimatised at”
Sodium Chloride 0.9% (pH 7.4) was used as the disperse phase. […] The administered volume was adjusted based on HPLC quantification of Leucine^[5]-Enkephalin and TPLENK and the body weight of each animal. […]
Antinociception was assessed in mice using the tail flick warm water bioassay (D'Amour and Smith 1941; Mogil et al. 1999). […] The response latency times, in centiseconds, recorded for each mouse to withdraw its tail by a “sharp flick” were recorded using a digital stopwatch capable of measuring 1/100th of a second. […] Mice not responding within 5 sec were excluded from further testing (Baseline cut-off=5 seconds) and the baseline latency was measured for all mice 2 hours prior testing. […]
All results were expressed as mean±standard error (i.e. SE: SD/√n). […]

[4] = HPLC quantification of the peptide content of the formulations; format: physicochemical; details: formulations for oral administration, not filtered
Description: Formulations were not filtered.
The formulations were left overnight in the fridge and prior to intravenous administration were filtered (0.8 μm, 13 mm, Acrodisc Syringe Filter, Super Low Protein Binding Non-Pyrogenic Membrane, PALL Life Sciences). A clear filtrate was obtained for Leucine^[5]-Enkephalin and Leucine^[5]-Enkephalin and GCPQ and a translucent liquid was obtained for Palmitoylated Leucine^[5]-Enkephalin (TPLENK) and GCPQ. The administered intravenous volume of the formulations was set to a maximum of 0.2 ml per mouse. […] The maximum volume was dosed for placebo (NaCl, 0.9% w/v) receiving mice.
Polymer dispersions with Leucine^[5]-Enkephalin (LENK) or Palmitoylated Leucine^[5]-Enkephalin (TPLENK) were dissolved in mobile phase and analysed by HPLC. Samples were chromatographed over a reverse phase HPLC Sunfire C18 column (5 μm, 4.6 mm×250 mm) with a guard column attached [Waters Sunfire C18 (5 μm, 4.6 mm×10 mm)], using a Waters™ 515 HPLC pump connected to a Water™ 717 plus Autosampler with a Waters™ 486 Tunable Absorbance Detector. The mobile phase consisted of 82% 50 mM acetate buffer and 18% acetonitrile (pH 5.8). Unless otherwise indicated, samples were detected at 280 nm. The flow rate was set at 1 mL min^−1 at 35° C. and an injection volume of 40 μL was used. […] Empower software I was used for data analysis. […]

In the case of `CC(C)C[C@H](NC(=O)[C@H](Cc1ccccc1)NC(=O)CNC(=O)CNC(=O)[C@@H](N)Cc1ccc(O)cc1)C(=O)O` [L, Leucine^[5]-Enkephalin], the “time of peak Leucine[5]-Enkephalin concentration in the brain tissue” value ([1]; 70 mg Kg^-1 Leucine[5]-Enkephalin (L, LG) or 100 mg Kg^-1 TPLENK (PG), brain) is reported as 4 h, the “peak Leucine[5]-Enkephalin concentration in the brain tissue” value ([1]; 70 mg Kg^-1 Leucine[5]-Enkephalin (L, LG) or 100 mg Kg^-1 TPLENK (PG), brain, at 4 hours) is reported as 0.695 ng/g and the “peak plasma concentration of Leucine[5]-Enkephalin” value ([1]; 70 mg Kg^-1 Leucine[5]-Enkephalin (L, LG) or 100 mg Kg^-1 TPLENK (PG), plasma) is reported as 29.3 ng 10^−1mL^−1. The Tmax ([1]; male, ICR (CD-1), mouse, 70 mg Kg^-1 Leucine[5]-Enkephalin, plasma, read-out: time of peak plasma concentration of Leucine[5]-Enkephalin) was 1 h, the “analgesic responders (response 2 or more times the baseline latency)” value [2] was 31.25% and the “mice reaching maximal possible latencies” value ([2]; cut-off 10 seconds) was 6.25%. The “analgesic responders (response 2 or more times the baseline latency)” value [3] was 37.5%, the “mice reaching maximal possible latencies” value ([3]; cut-off 10 seconds) was 0% and the “peptide content of the formulations (HPLC)” value [4] was 99.9%.
